Experiment in all cases: relative viability (nuclei count vs DMSO), 5 days (fraction); higher = more cells survive
Compound in the assay “Dabrafenib + Phenformin”: CC(C)(C)c1nc(-c2cccc(NS(=O)(=O)c3c(F)cccc3F)c2F)c(-c2ccnc(N)n2)s1 [Dabrafenib] + N=C(N)NC(=N)NCCc1ccccc1 [Phenformin] (partner 250 µM)
The method, boiled down: (§1)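 Relative viability equals treated-well nuclei counts divided by vehicle-well nuclei counts. Counts came from 4× images of lung cancer cell lines grown in 1536-well plates for 5 days after pin-tool dosing on the day after seeding. Dosing used one drug alone or a fixed anchor-drug dose plus five library-drug doses (not always all listed) in √10 steps, and values are medians of duplicate plates.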

Compound in the assay “VX-702 + Trametinib”: NC(=O)c1ccc(N(C(N)=O)c2c(F)cccc2F)nc1-c1ccc(F)cc1F [VX-702] + CC(=O)Nc1cccc(-n2c(=O)n(C3CC3)c(=O)c3c(Nc4ccc(I)cc4F)n(C)c(=O)c(C)c32)c1 [Trametinib] (partner 0.02 µM)
In a few lines:
as §1

Compound in the assay “VX-702 + Vorinostat”: NC(=O)c1ccc(N(C(N)=O)c2c(F)cccc2F)nc1-c1ccc(F)cc1F [VX-702] + O=C(CCCCCCC(=O)Nc1ccccc1)NO [Vorinostat] (partner 1 µM)
The method, boiled down: as §1

Compound in the assay “VX-702 + Pictilisib”: NC(=O)c1ccc(N(C(N)=O)c2c(F)cccc2F)nc1-c1ccc(F)cc1F [VX-702] + CS(=O)(=O)N1CCN(Cc2cc3nc(-c4cccc5[nH]ncc45)nc(N4CCOCC4)c3s2)CC1 [Pictilisib] (partner 1 µM)
In a few lines:
as §1

Regarding NCI-H647, the relative viability in the assay with Dabrafenib + Phenformin (first compound 0.003 µM) worked out at 0.129; in the assay with Dabrafenib + Phenformin (first compound 0.009487 µM), 0.521; with Dabrafenib + Phenformin (first compound 0.03 µM), 0.418; in the assay with Dabrafenib + Phenformin (first compound 0.09487 µM), 0.486; with Dabrafenib + Phenformin (first compound 0.3 µM), 0.458; in the assay with VX-702 + Trametinib (first compound 0.02 µM), 0.555. The relative viability turned out to be 0.571 in the assay with VX-702 + Trametinib (first compound 0.2 µM); 0.497 with VX-702 + Trametinib (first compound 0.6325 µM); 0.678 with VX-702 + Trametinib (first compound 2 µM); 0.563 with VX-702 + Vorinostat (first compound 0.02 µM); 0.499 with VX-702 + Vorinostat (first compound 0.2 µM); 0.304 in the assay with VX-702 + Vorinostat (first compound 0.6325 µM). In addition, the relative viability stood at 0.897 with VX-702 + Vorinostat (first compound 2 µM); 0.479 in the assay with VX-702 + Pictilisib (first compound 0.02 µM); 0.432 with VX-702 + Pictilisib (first compound 0.2 µM); 0.461 with VX-702 + Pictilisib (first compound 0.6325 µM); 0.644 in the assay with VX-702 + Pictilisib (first compound 2 µM).

Turning to NCI-H650, the relative viability is 0.475 in the assay with Dabrafenib + Phenformin (first compound 0.009487 µM); 0.393 in the assay with Dabrafenib + Phenformin (first compound 0.03 µM); 0.262 with Dabrafenib + Phenformin (first compound 0.09487 µM); 0.35 with Dabrafenib + Phenformin (first compound 0.3 µM); 0.92 with VX-702 + Trametinib (first compound 0.02 µM); 0.978 in the assay with VX-702 + Trametinib (first compound 0.2 µM). Moreover, the relative viability with VX-702 + Trametinib (first compound 0.6325 µM) was determined as 1.1; in the assay with VX-702 + Trametinib (first compound 2 µM) it was 1.08; with VX-702 + Vorinostat (first compound 0.02 µM), 0.607; with VX-702 + Vorinostat (first compound 0.2 µM), 0.309; with VX-702 + Vorinostat (first compound 0.6325 µM), 0.494; with VX-702 + Vorinostat (first compound 2 µM) it was 0.609. Besides, the results for the relative viability with VX-702 + Pictilisib (first compound 0.02 µM), with VX-702 + Pictilisib (first compound 0.6325 µM) and with VX-702 + Pictilisib (first compound 2 µM) were 0.745, 0.821 and 1.05, respectively.

As to NCI-H661, the relative viability in the assay with Dabrafenib + Phenformin (first compound 0.003 µM) stood at 0.256; with Dabrafenib + Phenformin (first compound 0.009487 µM), 0.277; in the assay with Dabrafenib + Phenformin (first compound 0.03 µM), 0.268; with Dabrafenib + Phenformin (first compound 0.09487 µM), 0.323; with Dabrafenib + Phenformin (first compound 0.3 µM), 0.306; in the assay with VX-702 + Trametinib (first compound 0.02 µM), 0.682. Moreover, the relative viability with VX-702 + Trametinib (first compound 0.2 µM) was determined as 0.599; with VX-702 + Trametinib (first compound 0.6325 µM), 0.637; with VX-702 + Trametinib (first compound 2 µM), 0.71; with VX-702 + Vorinostat (first compound 0.02 µM), 0.775; in the assay with VX-702 + Vorinostat (first compound 0.2 µM), 0.786; in the assay with VX-702 + Vorinostat (first compound 0.6325 µM) it was 0.76. For the same cell line, the relative viability worked out at 0.816 in the assay with VX-702 + Vorinostat (first compound 2 µM); 0.395 with VX-702 + Pictilisib (first compound 0.02 µM); 0.458 with VX-702 + Pictilisib (first compound 0.2 µM); 0.426 in the assay with VX-702 + Pictilisib (first compound 0.6325 µM); 0.421 with VX-702 + Pictilisib (first compound 2 µM).

As to NCI-H727, the relative viability with Dabrafenib + Phenformin (first compound 0.009487 µM) was determined as 0.425; in the assay with Dabrafenib + Phenformin (first compound 0.03 µM) it was 0.515; in the assay with Dabrafenib + Phenformin (first compound 0.3 µM) it was 0.595; in the assay with VX-702 + Trametinib (first compound 0.02 µM), 0.387; in the assay with VX-702 + Trametinib (first compound 0.2 µM), 0.381; in the assay with VX-702 + Trametinib (first compound 0.6325 µM), 0.382. The relative viability in the assay with VX-702 + Trametinib (first compound 2 µM) stood at 0.359; with VX-702 + Vorinostat (first compound 0.02 µM) it was 1.25; with VX-702 + Vorinostat (first compound 0.2 µM), 1.28; in the assay with VX-702 + Vorinostat (first compound 0.6325 µM) it was 1.18; in the assay with VX-702 + Vorinostat (first compound 2 µM), 1.39; in the assay with VX-702 + Pictilisib (first compound 0.02 µM), 0.343. The relative viability with VX-702 + Pictilisib (first compound 0.2 µM) amounted to 0.302; with VX-702 + Pictilisib (first compound 0.6325 µM) it was 0.382; with VX-702 + Pictilisib (first compound 2 µM), 0.356.

As to NCI-H838, the relative viability with Dabrafenib + Phenformin (first compound 0.003 µM) came to 0.564; in the assay with Dabrafenib + Phenformin (first compound 0.009487 µM) it was 0.648; with Dabrafenib + Phenformin (first compound 0.03 µM), 0.451; with Dabrafenib + Phenformin (first compound 0.09487 µM), 0.566; with Dabrafenib + Phenformin (first compound 0.3 µM) it was 0.625; with VX-702 + Trametinib (first compound 0.02 µM), 0.535. For the same cell line, the relative viability amounted to 0.521 in the assay with VX-702 + Trametinib (first compound 0.2 µM); 0.525 with VX-702 + Trametinib (first compound 0.6325 µM); 0.6 in the assay with VX-702 + Trametinib (first compound 2 µM); 0.737 with VX-702 + Vorinostat (first compound 0.02 µM); 0.702 with VX-702 + Vorinostat (first compound 0.2 µM); 0.751 with VX-702 + Vorinostat (first compound 0.6325 µM). Besides, the relative viability with VX-702 + Vorinostat (first compound 2 µM) turned out to be 0.787; with VX-702 + Pictilisib (first compound 0.02 µM), 0.467; with VX-702 + Pictilisib (first compound 0.2 µM), 0.408; with VX-702 + Pictilisib (first compound 0.6325 µM) it was 0.517; in the assay with VX-702 + Pictilisib (first compound 2 µM) it was 0.47.

Turning to NCI-H1355, the relative viability with Dabrafenib + Phenformin (first compound 0.009487 µM) turned out to be 0.487; with Dabrafenib + Phenformin (first compound 0.03 µM) it was 0.414; with Dabrafenib + Phenformin (first compound 0.09487 µM), 0.4; with Dabrafenib + Phenformin (first compound 0.3 µM), 0.459; with VX-702 + Trametinib (first compound 0.02 µM), 0.464; with VX-702 + Trametinib (first compound 0.2 µM), 0.38. For the same cell line, the relative viability in the assay with VX-702 + Trametinib (first compound 0.6325 µM) stood at 0.368; in the assay with VX-702 + Trametinib (first compound 2 µM), 0.416; in the assay with VX-702 + Vorinostat (first compound 0.02 µM), 0.694; with VX-702 + Vorinostat (first compound 0.2 µM), 0.605; with VX-702 + Vorinostat (first compound 0.6325 µM), 0.689; with VX-702 + Vorinostat (first compound 2 µM), 0.821. In addition, the relative viability with VX-702 + Pictilisib (first compound 0.02 µM) is 0.514; with VX-702 + Pictilisib (first compound 0.2 µM) it was 0.439; with VX-702 + Pictilisib (first compound 0.6325 µM), 0.338; in the assay with VX-702 + Pictilisib (first compound 2 µM), 0.46.

For the cell line NCI-H1395, the relative viability in the assay with Dabrafenib + Phenformin (first compound 0.003 µM) came out at 0.325; with Dabrafenib + Phenformin (first compound 0.009487 µM), 0.462; in the assay with Dabrafenib + Phenformin (first compound 0.03 µM) it was 0.447; with Dabrafenib + Phenformin (first compound 0.09487 µM), 0.403; with Dabrafenib + Phenformin (first compound 0.3 µM), 0.437; with VX-702 + Trametinib (first compound 0.02 µM), 1.06. The relative viability with VX-702 + Trametinib (first compound 0.2 µM) was 1.11; with VX-702 + Trametinib (first compound 0.6325 µM), 1.09; with VX-702 + Trametinib (first compound 2 µM), 1.24; in the assay with VX-702 + Vorinostat (first compound 0.02 µM), 0.701; with VX-702 + Vorinostat (first compound 0.2 µM), 0.686; with VX-702 + Vorinostat (first compound 0.6325 µM), 0.683. Besides, the relative viability with VX-702 + Vorinostat (first compound 2 µM) stood at 0.884; in the assay with VX-702 + Pictilisib (first compound 0.02 µM), 0.572; in the assay with VX-702 + Pictilisib (first compound 0.2 µM), 0.595; with VX-702 + Pictilisib (first compound 0.6325 µM), 0.607; with VX-702 + Pictilisib (first compound 2 µM) it was 0.662.

As for NCI-H1437, the relative viability in the assay with Dabrafenib + Phenformin (first compound 0.003 µM) worked out at 0.2; with Dabrafenib + Phenformin (first compound 0.009487 µM), 0.3; with Dabrafenib + Phenformin (first compound 0.03 µM), 0.259; with Dabrafenib + Phenformin (first compound 0.09487 µM) it was 0.3; with Dabrafenib + Phenformin (first compound 0.3 µM) it was 0.4; with VX-702 + Trametinib (first compound 0.02 µM), 0.519. Also, the relative viability was 0.447 in the assay with VX-702 + Trametinib (first compound 0.2 µM); 0.464 in the assay with VX-702 + Trametinib (first compound 0.6325 µM); 0.497 with VX-702 + Trametinib (first compound 2 µM); 0.904 with VX-702 + Vorinostat (first compound 0.02 µM); 0.827 with VX-702 + Vorinostat (first compound 0.2 µM); 0.863 in the assay with VX-702 + Vorinostat (first compound 0.6325 µM). Further, the relative viability with VX-702 + Vorinostat (first compound 2 µM) is 1.05; with VX-702 + Pictilisib (first compound 0.02 µM), 0.499; with VX-702 + Pictilisib (first compound 0.2 µM) it was 0.428; in the assay with VX-702 + Pictilisib (first compound 0.6325 µM), 0.446; with VX-702 + Pictilisib (first compound 2 µM), 0.53.

Consider NCI-H1650, for which the relative viability was 0.347 with Dabrafenib + Phenformin (first compound 0.003 µM); 0.424 with Dabrafenib + Phenformin (first compound 0.009487 µM); 0.457 with Dabrafenib + Phenformin (first compound 0.03 µM); 0.495 with Dabrafenib + Phenformin (first compound 0.09487 µM); 0.631 with Dabrafenib + Phenformin (first compound 0.3 µM); 0.599 with VX-702 + Trametinib (first compound 0.02 µM). Also, the relative viability was 0.725 with VX-702 + Trametinib (first compound 0.2 µM); 0.656 with VX-702 + Trametinib (first compound 0.6325 µM); 0.501 with VX-702 + Trametinib (first compound 2 µM); 0.479 with VX-702 + Vorinostat (first compound 0.02 µM); 0.624 with VX-702 + Vorinostat (first compound 0.2 µM); 0.776 with VX-702 + Vorinostat (first compound 0.6325 µM). Besides, the relative viability with VX-702 + Vorinostat (first compound 2 µM) is 0.583; with VX-702 + Pictilisib (first compound 0.02 µM), 0.641; with VX-702 + Pictilisib (first compound 0.2 µM) it was 0.326; with VX-702 + Pictilisib (first compound 0.6325 µM), 0.596; in the assay with VX-702 + Pictilisib (first compound 2 µM) it was 0.586.

Values taken from the supplement of paper PMC10307832.
